The test system of this assay is CD2F1 mice, L1210 leukemia ip, survival T/C. The assay is described as follows: NCI In Vivo Anticancer Drug Screen. Data for tumor model L1210 Leukemia (intraperitoneal) in CD2F1 (CDF1) mice. As to conditions: higher = longer survival. The method, boiled down:
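Compound-dosed mice with transplantable tumor versus matched vehicle controls; endpoint ratio T/C reported.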

Where [1] appears, read: endpoint: mean survival time, dose: 100.0 mg/kg/injection, schedule: Q01DX009 (ip), vehicle: saline with Tween-80.
Where [2] appears, read: endpoint: median survival time, dose: 100.0 mg/kg/injection, schedule: Q04DX003 (ip), vehicle: saline with Tween-80.
Setting [3] is: endpoint: mean survival time, dose: 50.0 mg/kg/injection, schedule: Q04DX003 (ip), vehicle: saline with Tween-80.
Setting [4] is: endpoint: mean survival time, dose: 100.0 mg/kg/injection, schedule: Q04DX003 (ip), vehicle: saline with Tween-80.
Setting [5] is: endpoint: mean survival time, dose: 200.0 mg/kg/injection, schedule: Q04DX003 (ip), vehicle: saline with Tween-80.
[6] abbreviates: endpoint: mean survival time, dose: 200.0 mg/kg/injection, schedule: Q01DX009 (ip), vehicle: saline with Tween-80.
The mark [7] stands for this setting: endpoint: mean survival time, dose: 400.0 mg/kg/injection, schedule: Q01DX009 (ip), vehicle: saline with Tween-80.
The mark [8] stands for this setting: endpoint: mean survival time, dose: 25.0 mg/kg/injection, schedule: Q01DX009 (ip), vehicle: saline with Tween-80.
[9] abbreviates: endpoint: mean survival time, dose: 50.0 mg/kg/injection, schedule: Q01DX009 (ip), vehicle: saline with Tween-80.
Setting [10] is: endpoint: mean survival time, dose: 100.0 mg/kg/injection, schedule: Q01DX001 (ip), vehicle: saline.
The mark [11] stands for this setting: endpoint: mean survival time, dose: 200.0 mg/kg/injection, schedule: Q01DX001 (ip), vehicle: saline.
[12] abbreviates: endpoint: mean survival time, dose: 100.0 mg/kg/injection, schedule: Q04DX002 (ip), vehicle: saline with Tween-80.
Setting [13] is: endpoint: mean survival time, dose: 200.0 mg/kg/injection, schedule: Q04DX002 (ip), vehicle: saline with Tween-80.
Setting [14] is: endpoint: mean survival time, dose: 400.0 mg/kg/injection, schedule: Q04DX002 (ip), vehicle: saline with Tween-80.
[15] abbreviates: endpoint: mean survival time, dose: 100.0 mg/kg/injection, schedule: Q01DX009 (ip), vehicle: saline.
The mark [16] stands for this setting: endpoint: mean survival time, dose: 400.0 mg/kg/injection, schedule: Q04DX003 (ip), vehicle: saline with Tween-80.
Setting [17] is: endpoint: mean survival time, dose: 100.0 mg/kg/injection, schedule: Q01DX001 (ip), vehicle: saline with Tween-80.
Setting [18] is: endpoint: mean survival time, dose: 200.0 mg/kg/injection, schedule: Q01DX001 (ip), vehicle: saline with Tween-80.
Setting [19] is: endpoint: mean survival time, dose: 400.0 mg/kg/injection, schedule: Q01DX001 (ip), vehicle: saline with Tween-80.

This note sets out measurements from PubChem BioAssay AID256 (DTP/NCI, 2004).

Where “and” joins values, the source holds several entries; their conditions need not be identical. Equal values may be shown once. Inconclusive results and toxic doses are left out.

Turning to `CCOC(=O)C(C)Sc1nn(C2OC(COC(=O)c3ccccc3)C(OC(=O)c3ccccc3)C2OC(=O)c2ccccc2)c(=O)[nH]c1=O` (stereo unspecified), the T/C runs as follows: (endpoint: mean survival time, dose: 12.5 mg/kg/injection, schedule: Q01DX005 (ip), vehicle: distilled water + Tween-80) 97 % of control; (endpoint: mean survival time, dose: 25.0 mg/kg/injection, schedule: Q01DX005 (ip), vehicle: distilled water + Tween-80) 97 % of control; (endpoint: mean survival time, dose: 50.0 mg/kg/injection, schedule: Q01DX005 (ip), vehicle: distilled water + Tween-80) 95 % of control; (endpoint: mean survival time, dose: 100.0 mg/kg/injection, schedule: Q01DX005 (ip), vehicle: distilled water + Tween-80) 95 % of control; (endpoint: mean survival time, dose: 200.0 mg/kg/injection, schedule: Q01DX005 (ip), vehicle: distilled water + Tween-80) 89 % of control.

For the molecule `BrCc1cccc2cccnc12`, the T/C runs as follows: under setting [1], 88 % of control; (endpoint: median survival time, dose: 50.0 mg/kg/injection, schedule: Q04DX003 (ip), vehicle: saline with Tween-80) 88 % of control; under setting [2], 88 % of control.

Turning to `C=CCn1c2ccccc2c2c(C)c3cnccc3c(C)c21`, the T/C (endpoint: mean survival time, dose: 25.0 mg/kg/injection, schedule: Q04DX003 (ip), vehicle: saline with Tween-80) was 96 % of control and 102 % of control; the T/C under setting [3] was 100 % of control and 102 % of control; the T/C under setting [4] is 103 % of control and 104 % of control; the T/C under setting [5] was 113 % of control and 116 % of control.

In the case of `O=C(CCCCC(=O)N/N=C/c1cccc([N+](=O)[O-])c1)N/N=C/c1cccc([N+](=O)[O-])c1`, the T/C reads like this: under setting [1], 87 % of control; under setting [6], 87 % of control; under setting [7], 90 % of control.

For the molecule `CSc1nc(NC2OC(CO)C(O)C(O)C2O)c(Br)c(=O)n1C` (stereo unspecified), the T/C runs as follows: (endpoint: median survival time, dose: 12.5 mg/kg/injection, schedule: Q01DX005 (ip), vehicle: saline with Tween-80) 98 % of control; (endpoint: median survival time, dose: 25.0 mg/kg/injection, schedule: Q01DX005 (ip), vehicle: saline with Tween-80) 100 % of control; (endpoint: median survival time, dose: 50.0 mg/kg/injection, schedule: Q01DX005 (ip), vehicle: saline with Tween-80) 96 % of control; (endpoint: median survival time, dose: 100.0 mg/kg/injection, schedule: Q01DX005 (ip), vehicle: saline with Tween-80) 101 % of control.

For the molecule `CCCCCCCCCCCCCCCCOP(=O)(O)OCCCCCCCCCCCCCCCC`, the T/C is 96 % of control under setting [8], 102 % of control under setting [9] and 95 % of control under setting [1].

Consider `COc1ccc(OCCOC(=O)Nc2cc(Cl)c(OC)cc2OC)cc1`, for which the T/C by setting is: (endpoint: mean survival time, dose: 12.5 mg/kg/injection, schedule: Q01DX009 (ip), vehicle: saline with Tween-80) 106 % of control; under setting [8], 103 % of control; under setting [9], 106 % of control; under setting [1], 92 % of control; under setting [6], 92 % of control.

Turning to `CCOC(=O)C1SCSCC1=O` (stereo unspecified), the T/C under setting [1] is 101 % of control, the T/C under setting [6] is 101 % of control and the T/C under setting [7] is 98 % of control.

On to `ClC/C(=N\N1CCCCCC1)c1ccccc1`, for which the T/C was 103 % of control under setting [10]; 103 % of control under setting [11]; 102 % of control (endpoint: mean survival time, dose: 400.0 mg/kg/injection, schedule: Q01DX001 (ip), vehicle: saline).

For `NC(=S)N/N=C/c1nccn1-c1cccc([N+](=O)[O-])c1`, the T/C is, setting by setting: (endpoint: mean survival time, dose: 25.0 mg/kg/injection, schedule: Q04DX002 (ip), vehicle: Klucel (hydroxypropylcellulose) (HPC)) 101 % of control; (endpoint: mean survival time, dose: 50.0 mg/kg/injection, schedule: Q04DX002 (ip), vehicle: Klucel (hydroxypropylcellulose) (HPC)) 96 % of control; (endpoint: mean survival time, dose: 100.0 mg/kg/injection, schedule: Q04DX002 (ip), vehicle: Klucel (hydroxypropylcellulose) (HPC)) 104 % of control.

Consider `COc1nc(NC2OC(CO)C(O)C(O)C2O)c(Br)c(=O)[nH]1` (stereo unspecified), for which the T/C by setting is: (endpoint: median survival time, dose: 12.5 mg/kg/injection, schedule: Q01DX005 (ip), vehicle: saline) 100 % of control; (endpoint: median survival time, dose: 25.0 mg/kg/injection, schedule: Q01DX005 (ip), vehicle: saline) 101 % of control; (endpoint: median survival time, dose: 50.0 mg/kg/injection, schedule: Q01DX005 (ip), vehicle: saline) 102 % of control; (endpoint: median survival time, dose: 100.0 mg/kg/injection, schedule: Q01DX005 (ip), vehicle: saline) 101 % of control; (endpoint: median survival time, dose: 200.0 mg/kg/injection, schedule: Q01DX005 (ip), vehicle: saline) 101 % of control.

Turning to `CCCCOC(=O)c1ccc(OC(=O)NCCC)cc1`, the T/C was 102 % of control (endpoint: mean survival time, dose: 50.0 mg/kg/injection, schedule: Q01DX009 (ip), vehicle: Klucel (hydroxypropylcellulose) (HPC)); 108 % of control (endpoint: mean survival time, dose: 100.0 mg/kg/injection, schedule: Q01DX009 (ip), vehicle: Klucel (hydroxypropylcellulose) (HPC)); 100 % of control (endpoint: mean survival time, dose: 200.0 mg/kg/injection, schedule: Q01DX009 (ip), vehicle: Klucel (hydroxypropylcellulose) (HPC)).

As for `O=C(O)C1CCC=CC1c1ccccc1` (stereo unspecified), the T/C under setting [12] is 95 % of control, the T/C under setting [13] is 102 % of control and the T/C under setting [14] was 91 % of control.

On to `CCOC(=O)C(Br)C(Br)c1ccccc1` (stereo unspecified), for which the T/C (endpoint: mean survival time, dose: 50.0 mg/kg/injection, schedule: Q01DX009 (ip), vehicle: saline) was 108 % of control; the T/C under setting [15] was 103 % of control; the T/C (endpoint: mean survival time, dose: 200.0 mg/kg/injection, schedule: Q01DX009 (ip), vehicle: saline) was 103 % of control.

On to `COc1cc(NCc2ccccc2O)c2ncccc2c1`, for which the T/C was 91 % of control under setting [3], 91 % of control under setting [4] and 91 % of control under setting [5].

Consider `O=S(=O)(O)c1ccccc1O`, for which the T/C under setting [15] was 101 % of control.

For the molecule `COc1cc(/C=N/n2cnnc2)cc(OC)c1OC`, the T/C is 101 % of control under setting [4], 95 % of control under setting [5] and 96 % of control under setting [16].

Turning to `CN(C)c1ccc(N=Nc2cccc(C(=O)[O-])c2)cc1.CN(C)c1ccc(N=Nc2cccc(C(=O)[O-])c2)cc1.NC1CCCCC1N.O=[N+]([O-])O.[Pt+4]`, the T/C runs as follows: (endpoint: median survival time, dose: 3.12 mg/kg/injection, schedule: Q04DX003 (ip), vehicle: saline with Tween-80) 104 % of control and 108 % of control; (endpoint: median survival time, dose: 6.25 mg/kg/injection, schedule: Q04DX003 (ip), vehicle: saline with Tween-80) 105 % of control and 110 % of control; (endpoint: median survival time, dose: 12.5 mg/kg/injection, schedule: Q04DX003 (ip), vehicle: saline with Tween-80) 120 % of control and 105 % of control; (endpoint: median survival time, dose: 25.0 mg/kg/injection, schedule: Q04DX003 (ip), vehicle: saline with Tween-80) 110 % of control; under setting [2], 212 % of control and 313 % of control; (endpoint: median survival time, dose: 200.0 mg/kg/injection, schedule: Q04DX003 (ip), vehicle: saline with Tween-80) 361 % of control.

With `CCOC1OC(C(O)CO)C(O)C(O)C1O` (stereo unspecified), the T/C is, setting by setting: (endpoint: mean survival time, dose: 100.0 mg/kg/injection, schedule: Q04DX003 (ip), vehicle: saline) 101 % of control; (endpoint: mean survival time, dose: 200.0 mg/kg/injection, schedule: Q04DX003 (ip), vehicle: saline) 103 % of control; (endpoint: mean survival time, dose: 400.0 mg/kg/injection, schedule: Q04DX003 (ip), vehicle: saline) 101 % of control.

For the molecule `Cc1ccccc1N`, the T/C is 102 % of control under setting [1] and 107 % of control under setting [6].

Consider `O=Cc1ccc(N=Nc2c(S(=O)(=O)O)cc3cc(S(=O)(=O)O)cc(O)c3c2O)cc1`, for which the T/C runs as follows: under setting [1], 100 % of control; under setting [4], 96 % of control; under setting [6], 88 % of control; under setting [16], 88 % of control.

For `O=C(CNC(=O)Nc1cccc(Cl)c1)N/N=C/c1ccccc1Cl`, the T/C is 106 % of control under setting [1], 109 % of control under setting [6] and 112 % of control under setting [7].

Turning to `CCOC(=O)c1cn[nH]c1/N=C/N(C)C`, the T/C under setting [17] is 98 % of control, the T/C under setting [18] was 104 % of control and the T/C under setting [19] was 106 % of control.

For the molecule `Cc1nc(N)[nH]c(=O)c1CCS`, the T/C reads like this: under setting [10], 97 % of control; under setting [11], 100 % of control.

Take `CCCCCCCCCCCCCCCCCCCOc1ccc(OCCCCCCCCCCCC)cc1`: the T/C is 93 % of control under setting [17], 89 % of control under setting [18] and 88 % of control under setting [19].

Take `O=C(NCC1CCCCO1)Nc1ccc(Cl)cc1` (stereo unspecified): the T/C was 110 % of control under setting [12], 102 % of control under setting [13] and 94 % of control under setting [14].
